The values below come from ChEMBL document CHEMBL4507273 (2021).

Experiment [1] concerns the target D(4) dopamine receptor (Homo sapiens, UniProt P21917). Nature of the experiment: GPCRScan assay: inhibition of D4. Further details: radioligand conc. used [nm] 0.6 – 1.7, parental cells Stable HEK.
The target in experiment [2] is Muscarinic acetylcholine receptor M3 (Homo sapiens, UniProt P20309). The experiment is described as follows: GPCRScan assay: inhibition of M3. Also noted: radioligand conc. used [nm] 0.3 – 1.0, parental cells stable CHO.
Experiment [3] addresses Dual specificity tyrosine-phosphorylation-regulated kinase 1A (Homo sapiens) (UniProt Q13627). Nature of the experiment: DYRK1A(h) Eurofins Kinase panel. The following applies: Compound concentration 1.0 uM.
For experiment [4], the target named is Tyrosine-protein kinase SYK (Homo sapiens) (UniProt P43405). The experiment is described as follows: Syk(h) Eurofins Kinase panel. The conditions noted are these: Compound concentration 1.0 uM.
Experiment [5] concerns the target Serine/threonine-protein kinase Chk2 (Homo sapiens) (UniProt O96017). The experiment is described as follows: CHK2(h) Eurofins Kinase panel. The conditions noted are these: Compound concentration 1.0 uM.
For experiment [6], the target named is Vascular endothelial growth factor receptor 3 (Homo sapiens) (UniProt P35916). The experiment is described as follows: Flt4(h) Eurofins Kinase panel. The conditions noted are these: Compound concentration 1.0 uM.
For experiment [7], the target named is Tyrosine-protein kinase receptor UFO (Homo sapiens) (UniProt P30530). Nature of the experiment: Axl(h) Eurofins Kinase panel. The following applies: Compound concentration 1.0 uM.
Experiment [8] addresses Vascular endothelial growth factor receptor 1 (Homo sapiens) (UniProt P17948). The experiment is described as follows: Flt1(h) Eurofins Kinase panel. The conditions noted are these: Compound concentration 1.0 uM.
Experiment [9] addresses Tyrosine-protein kinase Lyn (Homo sapiens) (UniProt P07948). The experiment is described as follows: Lyn(h) Eurofins Kinase panel. The following applies: Compound concentration 1.0 uM.
The target of experiment [10] is ATR/ATRIP (Homo sapiens) (UniProt Q13535+Q8WXE1). The experiment is described as follows: ATR/ATRIP(h) Eurofins Kinase panel. In kind it is protein-complex assay. The conditions noted are these: Compound concentration 1.0 uM.
Experiment [11] is filed under the species Rattus norvegicus. The conditions noted are these: Compound concentration 10.0 uM.
Experiment [12] deals with T1, Alpha-2A adrenergic receptor (Homo sapiens) (UniProt P08913).
T1 sequence (whole entry): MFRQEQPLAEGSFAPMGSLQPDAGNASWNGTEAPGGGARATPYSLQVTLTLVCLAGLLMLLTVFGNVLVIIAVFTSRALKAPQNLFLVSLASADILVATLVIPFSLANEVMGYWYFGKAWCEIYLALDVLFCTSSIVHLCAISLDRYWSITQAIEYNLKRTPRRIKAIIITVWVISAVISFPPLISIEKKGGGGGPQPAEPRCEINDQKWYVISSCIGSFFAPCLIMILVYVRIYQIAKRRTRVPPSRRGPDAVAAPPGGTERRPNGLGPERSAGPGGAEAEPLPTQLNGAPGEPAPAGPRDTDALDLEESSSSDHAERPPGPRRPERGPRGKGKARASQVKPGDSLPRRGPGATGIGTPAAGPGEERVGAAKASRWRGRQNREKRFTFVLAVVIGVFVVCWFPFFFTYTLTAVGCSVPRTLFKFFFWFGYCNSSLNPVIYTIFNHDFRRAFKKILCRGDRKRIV
The conditions noted are these: Compound concentration 10.0 uM.

For experiment [13], the target named is D(3) dopamine receptor (Homo sapiens, UniProt P35462). The following applies: Compound concentration 10.0 uM.
Experiment [14] addresses Histamine H2 receptor (Homo sapiens, UniProt P25021). The following applies: Compound concentration 10.0 uM.
Experiment [15] deals with T2, Muscarinic acetylcholine receptor M1 (Homo sapiens) (UniProt P11229).
T2 sequence (whole entry): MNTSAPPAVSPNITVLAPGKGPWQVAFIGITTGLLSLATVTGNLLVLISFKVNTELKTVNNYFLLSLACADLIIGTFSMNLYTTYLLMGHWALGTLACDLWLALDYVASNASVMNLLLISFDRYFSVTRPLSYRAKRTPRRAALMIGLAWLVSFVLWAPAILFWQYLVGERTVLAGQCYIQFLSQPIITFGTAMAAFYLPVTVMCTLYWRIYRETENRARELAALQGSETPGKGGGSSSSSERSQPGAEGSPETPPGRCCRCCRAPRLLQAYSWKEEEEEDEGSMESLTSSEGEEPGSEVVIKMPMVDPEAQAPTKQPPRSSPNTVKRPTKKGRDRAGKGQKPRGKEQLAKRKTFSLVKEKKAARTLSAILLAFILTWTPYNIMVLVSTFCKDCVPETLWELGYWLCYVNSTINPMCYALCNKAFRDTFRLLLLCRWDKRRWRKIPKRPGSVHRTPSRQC
The conditions noted are these: Compound concentration 10.0 uM.

Experiment [16] has as its target 5-hydroxytryptamine receptor 2B (Homo sapiens, UniProt P41595). The following applies: Compound concentration 10.0 uM.
The target in experiment [17] is T3, Alpha-2B adrenergic receptor (Homo sapiens) (UniProt P18089).
T3 sequence (whole entry): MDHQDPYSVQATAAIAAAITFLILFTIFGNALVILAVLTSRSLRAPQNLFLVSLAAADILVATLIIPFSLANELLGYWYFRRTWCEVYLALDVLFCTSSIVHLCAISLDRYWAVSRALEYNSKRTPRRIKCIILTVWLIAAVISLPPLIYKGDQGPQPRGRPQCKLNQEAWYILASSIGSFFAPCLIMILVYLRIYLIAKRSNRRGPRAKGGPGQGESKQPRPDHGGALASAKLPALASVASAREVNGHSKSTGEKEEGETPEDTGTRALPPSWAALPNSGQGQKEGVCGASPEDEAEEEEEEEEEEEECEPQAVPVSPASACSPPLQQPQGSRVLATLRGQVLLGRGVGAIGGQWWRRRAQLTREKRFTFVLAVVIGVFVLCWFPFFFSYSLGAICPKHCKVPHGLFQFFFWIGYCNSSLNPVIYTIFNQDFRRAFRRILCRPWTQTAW
The following applies: Compound concentration 10.0 uM.

Experiment [18] concerns the target D(2) dopamine receptor (Homo sapiens, UniProt P14416). The following applies: Compound concentration 10.0 uM.
The target in experiment [19] is 5-hydroxytryptamine receptor 2A (Homo sapiens, UniProt P28223). The conditions noted are these: Compound concentration 10.0 uM.
Experiment [20] has as its target Kappa-type opioid receptor (Homo sapiens, UniProt P41145). The experiment is described as follows: GPCRScan assay: inhibition of KOR. Also noted: radioligand conc. used [nm] 0.6 – 1.2, parental cells stable HEK.
The target in experiment [21] is Histamine H1 receptor (Homo sapiens, UniProt P35367). Nature of the experiment: GPCRScan assay: inhibition of H1. Further details: radioligand conc. used [nm] 0.6 – 2.0, parental cells stable HEK.
Experiment [22] concerns the target Delta-type opioid receptor (Homo sapiens) (UniProt P41143). The following applies: Compound concentration 10.0 uM.

Sequence of Histamine H1 receptor (P35367 whole entry): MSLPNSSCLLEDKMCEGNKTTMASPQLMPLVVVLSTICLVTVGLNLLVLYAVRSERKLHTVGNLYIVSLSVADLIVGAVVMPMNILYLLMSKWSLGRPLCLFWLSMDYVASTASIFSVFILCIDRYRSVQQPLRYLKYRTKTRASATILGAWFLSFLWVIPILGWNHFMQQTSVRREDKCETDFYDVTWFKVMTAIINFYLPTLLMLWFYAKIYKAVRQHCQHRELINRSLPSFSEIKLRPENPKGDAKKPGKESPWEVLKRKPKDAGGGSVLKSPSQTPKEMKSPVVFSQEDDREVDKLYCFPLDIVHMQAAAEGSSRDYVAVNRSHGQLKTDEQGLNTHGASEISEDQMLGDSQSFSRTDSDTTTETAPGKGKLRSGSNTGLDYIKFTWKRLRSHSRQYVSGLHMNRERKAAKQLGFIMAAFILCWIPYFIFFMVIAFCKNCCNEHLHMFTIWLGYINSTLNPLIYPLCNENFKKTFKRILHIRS
Sequence of Muscarinic acetylcholine receptor M3 (P20309 whole entry): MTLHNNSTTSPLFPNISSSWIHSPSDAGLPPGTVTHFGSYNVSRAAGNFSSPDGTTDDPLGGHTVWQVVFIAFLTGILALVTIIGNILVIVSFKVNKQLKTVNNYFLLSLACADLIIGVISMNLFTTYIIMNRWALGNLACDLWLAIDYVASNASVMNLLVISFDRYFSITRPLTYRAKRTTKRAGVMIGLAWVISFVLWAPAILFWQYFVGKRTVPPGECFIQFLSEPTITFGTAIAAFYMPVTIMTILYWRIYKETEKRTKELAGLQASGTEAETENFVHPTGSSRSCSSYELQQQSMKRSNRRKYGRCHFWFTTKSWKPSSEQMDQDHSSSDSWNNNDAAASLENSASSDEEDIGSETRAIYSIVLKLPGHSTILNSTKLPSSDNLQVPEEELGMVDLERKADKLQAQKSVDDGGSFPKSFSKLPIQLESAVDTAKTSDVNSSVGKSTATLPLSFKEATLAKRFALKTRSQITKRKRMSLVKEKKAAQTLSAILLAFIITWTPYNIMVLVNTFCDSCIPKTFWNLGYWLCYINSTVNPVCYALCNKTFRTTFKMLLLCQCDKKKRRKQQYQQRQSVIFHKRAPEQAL
Sequence of D(4) dopamine receptor (P21917 whole entry): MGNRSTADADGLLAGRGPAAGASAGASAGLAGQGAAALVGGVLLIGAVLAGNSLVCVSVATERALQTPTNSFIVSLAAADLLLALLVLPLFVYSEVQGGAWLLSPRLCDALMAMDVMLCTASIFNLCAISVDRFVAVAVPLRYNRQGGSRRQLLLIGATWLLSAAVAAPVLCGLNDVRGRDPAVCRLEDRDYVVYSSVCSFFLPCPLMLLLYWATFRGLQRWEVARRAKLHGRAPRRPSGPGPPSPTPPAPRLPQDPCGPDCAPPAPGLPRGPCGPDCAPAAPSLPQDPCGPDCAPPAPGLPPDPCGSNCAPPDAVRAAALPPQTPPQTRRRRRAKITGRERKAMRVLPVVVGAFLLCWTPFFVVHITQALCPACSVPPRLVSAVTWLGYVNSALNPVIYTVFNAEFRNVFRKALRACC
Sequence of Kappa-type opioid receptor (P41145 whole entry): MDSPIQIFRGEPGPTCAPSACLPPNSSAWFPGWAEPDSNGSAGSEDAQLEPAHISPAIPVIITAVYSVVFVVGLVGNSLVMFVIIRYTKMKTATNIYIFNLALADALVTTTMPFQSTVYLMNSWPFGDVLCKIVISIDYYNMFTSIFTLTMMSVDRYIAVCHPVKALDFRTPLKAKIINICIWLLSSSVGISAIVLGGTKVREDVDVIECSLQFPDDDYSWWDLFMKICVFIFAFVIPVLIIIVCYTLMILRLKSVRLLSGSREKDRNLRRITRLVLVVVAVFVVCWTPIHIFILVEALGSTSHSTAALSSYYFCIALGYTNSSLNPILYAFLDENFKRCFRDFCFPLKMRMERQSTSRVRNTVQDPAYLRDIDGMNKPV
Sequence of Tyrosine-protein kinase receptor UFO (Homo sapiens) (P30530 whole entry): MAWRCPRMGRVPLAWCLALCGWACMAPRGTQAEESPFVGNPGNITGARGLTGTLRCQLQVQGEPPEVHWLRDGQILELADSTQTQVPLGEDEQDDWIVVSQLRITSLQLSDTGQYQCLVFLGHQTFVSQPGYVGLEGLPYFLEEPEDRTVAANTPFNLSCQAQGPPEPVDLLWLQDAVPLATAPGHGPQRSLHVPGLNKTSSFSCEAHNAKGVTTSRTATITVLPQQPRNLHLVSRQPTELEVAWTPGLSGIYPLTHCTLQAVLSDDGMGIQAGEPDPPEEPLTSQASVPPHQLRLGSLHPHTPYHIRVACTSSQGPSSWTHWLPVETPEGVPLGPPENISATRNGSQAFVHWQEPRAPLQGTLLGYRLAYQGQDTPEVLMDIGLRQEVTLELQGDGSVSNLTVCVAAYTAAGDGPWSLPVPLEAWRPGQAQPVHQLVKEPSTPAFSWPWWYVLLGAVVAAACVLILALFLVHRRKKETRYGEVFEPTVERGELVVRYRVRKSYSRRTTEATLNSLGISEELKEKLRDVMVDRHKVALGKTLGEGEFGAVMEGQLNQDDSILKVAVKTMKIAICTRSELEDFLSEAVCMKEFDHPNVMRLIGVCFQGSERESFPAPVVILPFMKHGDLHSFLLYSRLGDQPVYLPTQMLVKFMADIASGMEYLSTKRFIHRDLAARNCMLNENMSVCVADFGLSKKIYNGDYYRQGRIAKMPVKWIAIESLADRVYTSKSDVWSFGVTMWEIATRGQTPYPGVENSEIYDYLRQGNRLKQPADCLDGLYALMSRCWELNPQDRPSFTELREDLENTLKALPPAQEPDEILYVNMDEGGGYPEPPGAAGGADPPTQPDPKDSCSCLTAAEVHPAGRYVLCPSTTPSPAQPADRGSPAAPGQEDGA
Sequence of Vascular endothelial growth factor receptor 1 (Homo sapiens) (P17948 whole entry): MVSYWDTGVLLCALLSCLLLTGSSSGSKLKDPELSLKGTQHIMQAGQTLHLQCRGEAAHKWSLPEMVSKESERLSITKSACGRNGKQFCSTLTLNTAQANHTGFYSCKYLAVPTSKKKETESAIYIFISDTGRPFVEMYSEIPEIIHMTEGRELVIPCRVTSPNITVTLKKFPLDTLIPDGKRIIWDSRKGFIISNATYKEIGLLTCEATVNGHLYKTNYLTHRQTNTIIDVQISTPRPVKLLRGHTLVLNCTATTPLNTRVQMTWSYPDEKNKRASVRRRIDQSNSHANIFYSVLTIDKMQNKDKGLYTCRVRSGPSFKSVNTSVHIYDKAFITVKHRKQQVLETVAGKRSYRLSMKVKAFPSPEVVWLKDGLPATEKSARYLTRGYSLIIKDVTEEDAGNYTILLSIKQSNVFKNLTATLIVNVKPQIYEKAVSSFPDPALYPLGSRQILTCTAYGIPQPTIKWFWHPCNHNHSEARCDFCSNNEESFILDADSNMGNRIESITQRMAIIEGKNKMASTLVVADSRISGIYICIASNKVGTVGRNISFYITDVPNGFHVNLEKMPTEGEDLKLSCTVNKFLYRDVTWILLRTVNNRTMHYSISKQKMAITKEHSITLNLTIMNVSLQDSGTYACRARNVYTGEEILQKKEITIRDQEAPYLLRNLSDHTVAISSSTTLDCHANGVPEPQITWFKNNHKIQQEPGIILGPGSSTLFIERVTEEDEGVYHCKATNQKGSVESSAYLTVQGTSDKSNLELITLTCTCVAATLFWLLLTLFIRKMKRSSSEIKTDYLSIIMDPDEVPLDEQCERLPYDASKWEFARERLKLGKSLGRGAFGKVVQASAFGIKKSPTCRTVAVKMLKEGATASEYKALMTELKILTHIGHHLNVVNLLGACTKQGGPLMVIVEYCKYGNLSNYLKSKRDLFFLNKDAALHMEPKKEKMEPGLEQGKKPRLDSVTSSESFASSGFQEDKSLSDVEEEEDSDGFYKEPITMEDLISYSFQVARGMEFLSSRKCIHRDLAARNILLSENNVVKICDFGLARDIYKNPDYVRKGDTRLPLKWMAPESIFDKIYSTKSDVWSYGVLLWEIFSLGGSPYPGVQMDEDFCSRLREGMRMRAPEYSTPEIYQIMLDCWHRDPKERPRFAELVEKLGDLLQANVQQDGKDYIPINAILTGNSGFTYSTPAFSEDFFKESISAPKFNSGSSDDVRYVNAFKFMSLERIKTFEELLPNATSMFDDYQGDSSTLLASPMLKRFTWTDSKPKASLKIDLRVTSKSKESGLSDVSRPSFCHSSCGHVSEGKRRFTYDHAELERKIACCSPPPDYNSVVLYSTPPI
Sequence of D(2) dopamine receptor (P14416 whole entry): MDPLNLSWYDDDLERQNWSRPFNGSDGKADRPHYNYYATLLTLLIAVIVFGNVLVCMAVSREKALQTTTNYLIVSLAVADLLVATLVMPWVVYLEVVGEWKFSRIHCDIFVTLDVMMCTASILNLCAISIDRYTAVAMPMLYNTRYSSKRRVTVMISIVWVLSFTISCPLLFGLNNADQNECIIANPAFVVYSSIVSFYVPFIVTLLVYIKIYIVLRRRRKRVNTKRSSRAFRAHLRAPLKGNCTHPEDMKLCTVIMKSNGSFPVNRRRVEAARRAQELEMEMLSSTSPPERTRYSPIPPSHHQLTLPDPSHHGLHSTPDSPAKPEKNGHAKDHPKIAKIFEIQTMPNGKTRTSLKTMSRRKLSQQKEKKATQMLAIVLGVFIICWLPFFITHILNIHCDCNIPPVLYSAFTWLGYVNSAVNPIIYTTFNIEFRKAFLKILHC
Sequence of Delta-type opioid receptor (Homo sapiens) (P41143 whole entry): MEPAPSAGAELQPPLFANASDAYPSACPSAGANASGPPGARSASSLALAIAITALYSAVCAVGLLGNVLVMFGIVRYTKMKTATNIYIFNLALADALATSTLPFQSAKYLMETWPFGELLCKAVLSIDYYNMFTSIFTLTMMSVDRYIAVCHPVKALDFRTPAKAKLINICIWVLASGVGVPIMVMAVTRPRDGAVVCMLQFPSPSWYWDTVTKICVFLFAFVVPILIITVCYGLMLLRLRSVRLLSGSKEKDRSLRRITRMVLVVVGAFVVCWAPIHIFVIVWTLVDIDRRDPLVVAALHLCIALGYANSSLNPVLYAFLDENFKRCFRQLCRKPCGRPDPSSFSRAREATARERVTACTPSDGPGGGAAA

As to `CNCc1ccccc1-c1csc([C@@H](C)Nc2nc(C)nc3cc(OC)c(OC)cc23)c1` [BAY-293], the Ki in experiment [1] (read-out: Ki) was 2660 nM; in experiment [1] (read-out: pKi (converted)), 2630 nM; in [2] (read-out: Ki), 972 nM; in experiment [2] (read-out: pKi (converted)) it was 955 nM. The % residual kinase activity in experiment [3] was 68%; in experiment [4], 79%; in experiment [5], 80%; in [6] it was 82%; in experiment [7], 88%; in experiment [8], 88%. The % residual kinase activity in [9] and in experiment [10] was 88% in each case. Moreover, the inhibition (commonly the drop in the measured response relative to a control, in per cent) was 13.1% in experiment [11]; 99% in experiment [12]; 88% in experiment [13]; 99% in experiment [14]; 94% in experiment [15]; 100% in [16]. Also, the figures for the inhibition in experiment [17], in [18] and in experiment [19] were 85%, 67% and 110%, respectively.
For `CNCc1ccccc1-c1csc([C@H](C)Nc2nc(C)nc3cc(OC)c(OC)cc23)c1` [BAY-294], the Ki in [20] (read-out: Ki) is 841 nM; in experiment [20] (read-out: pKi (converted)), 822 nM; in experiment [21] (read-out: Ki), 1370 nM; in [21] (read-out: pKi (converted)), 1350 nM. In experiment [22], the inhibition was 10.5%.
